# Results reported in publication PMC6882465, “Towards discovery of new leishmanicidal scaffolds able to inhibit Leishmania GSK-3” (Journal of Enzyme Inhibition and Medicinal Chemistry, 2019).
# pIC50: −log10 of the molar value.
# Target: LdGSK-3 (Leishmania donovani, UniProt A6N857)
# Experiment: Inhibition of LdGSK-3 with Kinase Glo
# Type: biochemical
# Conditions: Table 1; read-out: LdGSK-3 IC50
# Procedure: Assessment of inhibition of LdGSK-3 with Kinase Glo^TM
# The reaction was allowed to proceed for 30 min at 30 °C, then it was incubated at room temperature for another 10 min after addition of Kinase Glo reagents (Promega, Ref. V6712). ATP consumption by LdGSK-3 was measured indirectly through end-point luminescence measurement of each well in a Varioskan Flash microplate reader (Thermo).
# Sequence of LdGSK-3 (A6N857 entry or part of it): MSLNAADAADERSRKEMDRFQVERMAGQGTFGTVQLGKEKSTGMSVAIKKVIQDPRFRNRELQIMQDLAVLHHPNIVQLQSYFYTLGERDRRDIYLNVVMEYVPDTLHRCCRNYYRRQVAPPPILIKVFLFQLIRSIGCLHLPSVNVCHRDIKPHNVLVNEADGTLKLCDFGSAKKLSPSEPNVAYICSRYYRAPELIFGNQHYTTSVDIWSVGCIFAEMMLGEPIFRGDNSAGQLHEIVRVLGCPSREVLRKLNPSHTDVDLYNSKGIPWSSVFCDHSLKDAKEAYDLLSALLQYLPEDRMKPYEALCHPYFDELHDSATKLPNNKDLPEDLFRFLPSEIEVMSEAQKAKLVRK
row,pIC50,Compound
1,5.62,"O=C1Nc2ccc(S(=O)(=O)O)cc2C1=C1Nc2ccccc2C1=NO [Indirubin-3’-monoxime-5-sulphonic acid, reference compound]"

# Same assay, conditions: Table S2; 10 µM
row,% inhibition @ 10µM (initial screening on LdGSK3) [%],Compound
1,8.70±1.75,CC1CN(Cc2ccc(C#N)cc2)CCN1c1ccc(NC(=O)c2ccccc2F)cc1.O=C(O)C(F)(F)F.O=C(O)C(F)(F)F (centres unmarked) [Compound 199]
2,8.15±0.95,O=C(Nc1nc(-c2ccc(F)cc2)cs1)c1ccc([N+](=O)[O-])s1 [Compound 132]
3,2.25±0.35,O=C(CN1CCC2(O)CCCCC2C1c1ccc2c(c1)OCO2)Nc1ccc(Cl)cc1Cl (centres unmarked) [Compound 143]
4,4.90±2.30,Cc1ccccc1CNC(=O)CN(Cc1ccccn1)Cc1ccccn1.O=C(O)C(F)(F)F [Compound 203]
5,6.85±1.55,COc1ccc(NS(=O)(=O)c2ccc(S(=O)(=O)N(C)C3CCCCC3)cc2)c2ncccc12 [Compound 135]
6,7.85±3.95,Cc1cc(C)n(-c2nc(NC(C)C)nc(NC(C)(C)C)n2)n1 [Compound 158]
7,3.10±0.70,O=C(c1ccc(Cl)cc1)c1ccc(OC(=O)N2CCOCC2)cc1 [Compound 163]
8,11.90±1.75,COc1ccc(C2CC(c3ccc(NS(C)(=O)=O)cc3)=NN2C(=O)c2cccs2)cc1OC (centres unmarked) [Compound 156]
9,6.00±1.50,COCCn1c(-c2ccccc2)cnc1NCc1ccccc1OC.O=C(O)C(=O)O [Compound 174]
10,2.65±4.15,O=C(CN(Cc1ccccn1)Cc1ccccn1)NCc1ccc2c(c1)OCO2.O=C(O)C(F)(F)F [Compound 193]
11,3.65±2.60,Cc1cc(NC(=O)c2ccc([N+](=O)[O-])s2)ccc1Br [Compound 186]
12,13.40±2.35,Cc1cccc(Nc2nc(-c3ccccn3)cs2)n1 [Compound 147]
13,5.90±2.90,CC(C)(C)c1csc(NC(=O)c2ccc([N+](=O)[O-])s2)n1 [Compound 181]
14,2.85±0.45,Cc1cn[nH]c1C1CCCN(Cc2nc3ccccc3n2C)C1 (centres unmarked) [Compound 114]
15,10.00±0.90,C=CCN(Cc1cccs1)C(=O)CSc1nnc(-c2ccc3c(c2)OCO3)o1 [Compound 206]
16,20.90±4.45,Cc1cc2cc(CNc3ccc4c(c3)OCO4)c(=O)n(CCO)c2cc1C [Compound 188]
17,8.00±4.85,CN(C)CCN(C)Cc1ccc(Cl)cc1NS(=O)(=O)c1ccc(Cl)c(Cl)c1 [Compound 204]
18,7.50±1.00,O=C(Nc1nc2ccccc2[nH]1)c1c(O)c2cccc3c2n(c1=O)CC3 [Compound 155]
19,1.70±0.75,O=C(Nc1ccc(C(F)(F)F)cc1)Nc1cccc([N+](=O)[O-])c1 [Compound 185]
20,10.20±3.25,O=C(CN1CCN(c2ccccn2)CC1)Nc1cc(S(=O)(=O)N2CCCCCC2)ccc1Cl [Compound 208]
21,22.80±3.55,CCc1ccc2nc(NC(=O)c3cc(N4CCOCC4)ccn3)sc2c1 [Compound 118]
22,8.55±1.75,COc1cc(Cl)c(C)cc1NC(=O)c1ccc([N+](=O)[O-])s1 [Compound 176]
23,9.10±1.75,Cc1nn(-c2ccccc2)nc1CNC(=O)CN(Cc1ccccn1)Cc1ccccn1.O=C(O)C(F)(F)F [Compound 144]

# Further lines, the molecule ahead of its results:
row,Compound,% inhibition @ 10µM (initial screening on LdGSK3) [%]
1,COCc1cc(Nc2cccc(Cl)c2)nc(-c2ccccn2)n1 [Compound 39],9.00±3.05
2,Nc1cc(-c2ccc3ncnc(N4CCOCC4)c3c2)cnc1N [Compound 55],0.55±3.00
3,Cc1ccc2onc(Nc3ccnc(Nc4cccc(S(C)(=O)=O)c4)n3)c2c1.O=C(O)C(F)(F)F [Compound 74],10.00±0.75
4,Nc1nc(-c2ccccn2)nc(-n2nc(-c3cccc(C(F)(F)F)c3)cc2N)n1.O=C(O)C(F)(F)F [Compound 26],4.75±1.20
5,COCc1cc(Nc2ccccc2)nc(-c2ccccn2)n1 [Compound 35],2.90±4.05
6,O=C(Nc1cccc(Cl)c1)Nc1ccc([N+](=O)[O-])cc1Cl [Compound 89],4.80±2.05
7,CNc1nc(C)nc(N2CCc3cc(C(=O)NCc4ccc(-c5ccn[nH]5)cc4Cl)ccc32)n1.O=C(O)C(F)(F)F [Compound 25],-13.55±3.90
8,CCNc1cc(-c2ccccn2)nc(Nc2ccccc2)n1 [Compound 38],7.10±1.40
9,O=C(Nc1ccc(S(=O)(=O)N2CCCC2)cc1)c1ccc([N+](=O)[O-])s1 [Compound 59],16.15±4.10
10,CCNc1cc(-c2ccccn2)nc(Nc2ccc(OC)cc2)n1 [Compound 45],-2.50±5.50
11,CN(CCOc1ccc(Cl)cc1)Cc1nc(N)nc(N(C)C)n1 [Compound 44],-2.45±1.00
12,Oc1c(-c2n[nH]c(Cc3ccc(Cl)cc3)n2)ncc2cccnc12 [Compound 52],5.05±2.35
13,Cc1cc(N2CCc3ccccc3C2)nc(Nc2ccc(S(=O)(=O)N3CCOCC3)cc2)n1.Cl [Compound 73],-3.05±0.35
14,O=C(Nc1nc(-c2ccccn2)cs1)C1CCc2ccccc2C1 (centres unmarked) [Compound 54],0.10±1.10
15,CC(C)c1nn(-c2nc(N)nc(-c3ccccn3)n2)c(N)c1C1CCCCC1 [Compound 94],10.45±0.55
16,COc1ccc(C(=O)[C@H]2C[C@@H]2CN(Cc2ccccn2)Cc2ccccn2)cc1 [Compound 107],-4.05±3.20
17,O=C(Nc1nc2ccccc2[nH]1)c1ccc2nc[nH]c2c1 [Compound 53],-1.60±1.50
18,CC(C)c1sc(Cl)nc1C(=O)NCCc1nc(C(=O)Nc2ccc3c(c2)OCO3)cs1 [Compound 60],0.20±2.80
19,O=C(CN(Cc1ccccn1)Cc1ccccn1)NC1Cc2ccccc2C1.O=C(O)C(F)(F)F [Compound 58],3.75±2.40
20,CNc1nc(C)nc(N2CCc3cc(C(=O)NCc4ccc(-c5nccn5C)cc4Cl)ccc32)n1.O=C(O)C(F)(F)F [Compound 83],-5.05±0.45
21,COc1ccc(Cc2nc(-c3ncc4cccnc4c3O)n[nH]2)cc1OC [Compound 77],4.60±0.95
22,O=C(CN(Cc1ccccn1)Cc1ccccn1)NCc1csc(-c2cccs2)n1.O=C(O)C(F)(F)F [Compound 68],6.80±1.95
23,COc1ccc(-c2cnc(NC(=O)c3cc(-c4ccccn4)n[nH]3)n2C)cc1 [Compound 90],6.40±2.45
24,Cc1nc2c(-c3nc(-c4ccccc4N)n[nH]3)cccn2c1C [Compound 113],1.40±0.50
25,OCC1CCCCN1c1cc(-c2ccccn2)nc(Nc2ccccc2)n1 (centres unmarked) [Compound 99],0.60±0.60
26,Oc1c(-c2n[nH]c(Cc3ccc(F)cc3)n2)ncc2cccnc12 [Compound 102],4.05±3.10
